Test results from ChEMBL document CHEMBL1150079, “Oxygenated Clerosterols Isolated from the Marine Alga Codium arabicum” (1995).
Converted amounts (≈) assume the structure as drawn.

What was measured:
Format in all cases: functional
[1] = tested on: A549; experiment: Cytotoxicity against human A549 cells after 6 days by MTT assay; settings: A549, 144 h, read-out: ED50 (the source's name)
[2] = tested on: HT-29; experiment: Cytotoxicity against human HT-29 cells after 6 days by MTT assay; settings: HT-29, 144 h, read-out: ED50 (the source's name)
[3] = tested on: P388; experiment: Cytotoxicity against mouse P388 cells after 3 days by MTT assay; settings: P388, 72 h, read-out: ED50 (the source's name)
[4] = tested on: KB; experiment: Cytotoxicity against human KB cells after 3 days by MTT assay; settings: 72 h, read-out: ED50 (the source's name)

Row | Structure (SMILES) | EC50 [1] [µg/mL] | EC50 [2] [µg/mL] | EC50 [3] [µg/mL] | EC50 [4] [µg/mL]
1 | C=C(C)[C@@H](CC)CC[C@@H](C)[C@H]1CC[C@H]2[C@@H]3C[C@@H](O)C4=CC(=O)CC[C@]4(C)[C@H]3CC[C@]12C | 2.1 (≈ 4.92 µM) | 0.3 (≈ 0.703 µM) | 0.7 (≈ 1.64 µM) | 1.3 (≈ 3.05 µM)
2 | C=C(C)[C@@H](CC)CC[C@@H](C)[C@H]1CC[C@H]2[C@@H]3C=C[C@@]4(OO)C[C@@H](O)CC[C@]4(C)[C@H]3CC[C@]12C | 1.1 (≈ 2.47 µM) | 0.9 (≈ 2.02 µM) | 0.5 (≈ 1.12 µM) | 1 (≈ 2.25 µM)
3 | C=C(C)[C@@H](CC)CC[C@@H](C)[C@H]1CC[C@H]2[C@@H]3C(=O)C=C4C[C@@H](O)CC[C@]4(C)[C@H]3CC[C@]12C | 1.2 (≈ 2.81 µM) | 2 (≈ 4.69 µM) | 0.8 (≈ 1.87 µM) | 1 (≈ 2.34 µM)
4 | C=C(C)[C@@H](CC)CC[C@@H](C)[C@H]1CC[C@H]2[C@@H]3[C@H](OO)C=C4C[C@@H](O)CC[C@]4(C)[C@H]3CC[C@]12C | 0.5 (≈ 1.12 µM) | 1 (≈ 2.25 µM) | 0.4 (≈ 0.899 µM) | 1 (≈ 2.25 µM)
5 | C=C(C)[C@@H](CC)CC[C@@H](C)[C@H]1CC[C@H]2[C@@H]3[C@H](O)C=C4C[C@@H](O)CC[C@]4(C)[C@H]3CC[C@]12C | 0.5 (≈ 1.17 µM) | 0.6 (≈ 1.4 µM) | 0.2 (≈ 0.467 µM) | 1.1 (≈ 2.57 µM)
6 | C=C(C)[C@@H](CC)CC[C@@H](C)[C@H]1CC[C@H]2[C@@H]3CC=C4C[C@@H](O)CC[C@]4(C)[C@H]3CC[C@]12C [CLEROSTEROL] | 0.3 (≈ 0.727 µM) | 43.1 (≈ 104 µM) | 1.7 (≈ 4.12 µM) | > 50
